Values of other authors as cited in patent publication US20170364630A1, “IDENTIFICATION OF CELLULAR ANTIMICROBIAL DRUG TABLETS THROUGH INTERACTOME ANALYSIS” (Vanderbilt University, priority 2014, published 2017).
≈ marks a conversion by molar mass, not a printed value.

How the values were obtained:
[1] = tested on: Ebola-related genes (MERTK, FURIN, TYRO3, CTSB, NADK, POLH, TAPT1); conditions: CMap data, FIG. 8
[2] = tested on: hepatitis C virus (HCV); conditions: cell-based quantitative high-throughput screening, He et al. 2015; read-out: EC50, anti-HCV activity
[3] = tested on: HIV-1; conditions: Szlavik et al. 2004
[4] = tested on: human enterovirus 71; conditions: human enterovirus 71-infected mice
[5] = tested on: poliovirus-infected HeLa cells
[6] = tested on: calcium channel protein; conditions: Fish and Antzelevitch 2004
[7] = molecular target: HIV-1 reverse transcriptase (Human immunodeficiency virus type 1 group M subtype B, UniProt P04585); conditions: Tan et al. 1991; read-out: IC50 against the HIV-1 reverse transcriptase
[8] = tested on: HIV-1; conditions: approximate value, Guendel et al. 2010; read-out: IC50, inhibitor of HIV-1

In the case of `CN1C(C(=O)Nc2ccccn2)=C(O)c2ccccc2S1(=O)=O` [piroxicam], the “Up-regulated host genes following drug treatment” value [1] is given as “FURIN and MERTK”.
For `Clc1ccc(Cn2c(CN3CCCC3)nc3ccccc32)cc1` [clemizole], the EC50 [2] is given as 7.15 µM.
In the case of `O[C@H]1[C@H]2c3cc4c(cc3CN3CCC(=C[C@@H]1O)[C@H]23)OCO4` [lycorine], the “IC50, anti-HIV-1 activity in MT4 cells” value [3] is given as 0.4 mg/L (≈ 1.39 µM), the “Effect on mortality of infected mice” value [4] is given as “reduces mortality” and the “Effect on viral protein synthesis” value [5] is given as “inhibits viral protein synthesis”.
In the case of `CC[C@H]1[C@@H]2C[C@H]3[C@@H]4N(C)c5ccccc5[C@]45C[C@@H]([C@H]2[C@H]5O)N3[C@@H]1O` [ajmaline], the “Concentration exerting comparable pharmacological activity by inhibiting calcium channel protein activity” value [6] is listed as at most 20 μM and the “Up-regulated host genes following drug treatment” value [1] is listed as “MERTK, FURIN, TYRO3, FURIN, and CTSB”.
In the case of `C[n+]1cc2c3c(ccc2c2ccc4cc5c(cc4c21)OCO5)OCO3` [sanguinarine nitrate], the IC50 [7] is listed as 150 to 451 µM.
For `O=C1Cc2c([nH]c3ccc([N+](=O)[O-])cc23)-c2ccccc2N1` [alsterpaullone], the IC50 [8] is given as about 0.15 µM.
In the case of `CN1CCCN(C(c2ccccc2)c2ccc(Cl)cc2)CC1` (stereo not drawn) [homochlorcyclizine], the EC50 [2] is listed as 0.47 µM.
For `CC1(C)S[C@@H]2[C@H](NC(=O)[C@H](NC(=O)N3CCNC3=O)c3ccccc3)C(=O)N2[C@H]1C(=O)O` [azlocillin], the “Down-regulated host genes following drug treatment” value [1] is listed as “TAPT1 and TYRO3” and the “Up-regulated host genes following drug treatment” value [1] is listed as “NADK and POLH”.
